Values quoted from earlier work as cited in patent publication US20140221490A1, “METHODS OF TREATING PAIN” (Hospira, Inc., priority 2011, published 2014).
Read-outs that look alike come from different tables or passages of the source.

Conditions: cited from earlier work; for Prot. bind., drug fraction bound to protein (fP): plasma; for Cmax: read-out: Cmax, maximum drug concentration in plasma, based on the drug's pharmacokinetics and administration of a normal drug dose; for K1:1, stability constant of 1:1 inclusion complex with HPβCD: literature reference

SMILES	Vd, volume of distribution [L/kg]	Prot. bind., drug fraction bound to protein (fP)	Cmax [µM]	K1:1, stability constant of 1:1 inclusion complex with HPβCD	K1:1, stability constant of 1:1 inclusion complex with HPβCD (listed as fenofibrate) [M⁻¹]	K1:1, stability constant of 1:1 inclusion complex with HPβCD (listed as telmisartan)
CC(=O)Nc1ccc(O)cc1 [Acetaminophen]	0.95	20%	50			
CC(=O)Nc1nnc(S(N)(=O)=O)s1 [Acetazolamide]	0.2	95%	160			
CC(=O)Oc1ccccc1C(=O)O [Acetylsalicylic acid]	0.15	80%	530	100^l M^−1		
Nc1nc2c(ncn2COCCO)c(=O)[nH]1 [Acyclovir]			7.2	770^2 M^−1		
CC1(C)S[C@@H]2[C@H](NC(=O)[C@H](N)c3ccc(O)cc3)C(=O)N2[C@H]1C(=O)O [Amoxicillin]	0.3	20%	65			
CCNC(=O)CCC/C=C\C[C@@H]1[C@@H](/C=C/[C@@H](O)CCc2ccccc2)[C@H](O)C[C@@H]1O [Bimatoprost]	0.67	88%	0.00019	1,900^i M^−1		
CCCCN1CCCCC1C(=O)Nc1c(C)cccc1C (centres unmarked) [Bupivacaine]	1.0	95%	6.9	13^5 M^−1		
NC(=O)N1c2ccccc2C=Cc2ccccc21 [Carbamazepine]	1.4	75%	34	630^6 M^−1		
COc1ccccc1OCCNCC(O)COc1cccc2[nH]c3ccccc3c12 (centres unmarked) [Carvedilol]	1.7	98%	400	580^7 M^−1		
C=CC1=C(C(=O)O)N2C(=O)[C@@H](NC(=O)/C(=N\O)c3csc(N)n3)[C@H]2SC1 [Cefdinir]	0.35	70%	7.3	59^8 M^−1		
C=CC1=C(C(=O)O)N2C(=O)[C@@H](NC(=O)/C(=N\OCC(=O)O)c3csc(N)n3)[C@H]2SC1 [Cefixime]	1.0		360	1,400^9 M^−1		
Cc1ccc(-c2cc(C(F)(F)F)nn2-c2ccc(S(N)(=O)=O)cc2)cc1 [Celecoxib]	6.5	97%	1.9	630^10 M^−1		
CC(=O)OCC1=C(C(=O)O)N2C(=O)[C@@H](NC(=O)Cc3cccs3)[C@H]2SC1 [Cephalothin]	0.26	80%	76	70^11 M^−1		
O=C(N[C@H](CO)[C@H](O)c1ccc([N+](=O)[O-])cc1)C(Cl)Cl [Chloramphenicol]	0.80	80%	130			
CNC1=Nc2ccc(Cl)cc2C(c2ccccc2)=[N+]([O-])C1 [Chlordiazepoxide]		96%				
NS(=O)(=O)c1cc(C2(O)NC(=O)c3ccccc32)ccc1Cl (centres unmarked) [Chlortalidone (chlorthalidone), chlorthalidone]	4.0	75%	19	115^14 M^−1		
C[C@H]1C[C@H]2[C@@H]3CCC4=CC(=O)C=C[C@]4(C)[C@@]3(F)[C@@H](O)C[C@]2(C)[C@@]1(O)C(=O)CO [Cilest (betamethasone), betamethasone]		64%	0.29	3,000^16 M^−1		
O=C(O)Cc1ccccc1Nc1c(Cl)cccc1Cl [Diclofenac Na, diclofenac sodium]	0.17	99.5%	13			
Clc1ccc(COC(Cn2ccnc2)c2ccc(Cl)cc2Cl)cc1 (centres unmarked) [Econazole nitrate]		(96) %	5.5	13^20 M^−1		
C[C@]12CC[C@@H]3c4ccc(O)cc4CC[C@H]3[C@@H]1CC[C@@H]2O [Estradiol]	1	97%	0.00053	2,000^22 M^−1		
CCc1cccc2c3c([nH]c12)C(CC)(CC(=O)O)OCC3 (centres unmarked) [Etodolac]	0.4	99%	170			
O=C1[C@H](CC[C@H](O)c2ccc(F)cc2)[C@@H](c2ccc(O)cc2)N1c1ccc(F)cc1 [Ezetimibe]	1.5	90%	0.012	1,300^23 M^−1		
CC(C)OC(=O)C(C)(C)Oc1ccc(C(=O)c2ccc(Cl)cc2)cc1 [Fenofibrate]	0.9	99%	28	2^24 M^−1	2	

SMILES	Vd, volume of distribution [L/kg]	Prot. bind., drug fraction bound to protein (fP)	Cmax [µM]	K1:1, stability constant of 1:1 inclusion complex with HPβCD	K1:1, stability constant of 1:1 inclusion complex with HPβCD (listed as fenofibrate) [M⁻¹]	K1:1, stability constant of 1:1 inclusion complex with HPβCD (listed as telmisartan)
CNCCC(Oc1ccc(C(F)(F)F)cc1)c1ccccc1 (centres unmarked) [Fluoxetine]	27	95%	0.18			
CC(C(=O)O)c1ccc(-c2ccccc2)c(F)c1 (centres unmarked) [Flurbiprofen]	0.12	99%	62	7,500^26 M^−1		
CCC1=C(C)CN(C(=O)NCCc2ccc(S(=O)(=O)NC(=O)N[C@H]3CC[C@H](C)CC3)cc2)C1=O [Glimepride]		99.5%				
O=C(CCCN1CCC(O)(c2ccc(Cl)cc2)CC1)c1ccc(F)cc1 [Haloperidol]	18	92%	0.088			
CC(C)Cc1ccc(C(C)C(=O)O)cc1 (centres unmarked) [Ibuprofen]			280	5,000^31 M^−1		
CC(C(=O)O)c1cccc(C(=O)c2ccccc2)c1 (centres unmarked) [Ketoprofen]	0.15					
CC(=O)O[C@]1(C(C)=O)CC[C@H]2[C@@H]3C[C@H](C)C4=CC(=O)CC[C@]4(C)[C@H]3CC[C@@]21C [Medroxyprogesterone acetate]		90%	1.8	260^33 M^−1		
Clc1ccc(COC(Cn2ccnc2)c2ccc(Cl)cc2Cl)c(Cl)c1 (centres unmarked) [Miconazole]	20	92%	0.029			
Cc1ncc2n1-c1ccc(Cl)cc1C(c1ccccc1F)=NC2 [Midazolam]		97%				
COc1ccc2cc(CCC(C)=O)ccc2c1 [Nabumetone]	0.2	99%	160	3,000^35 M^−1		
COC(=O)C1=C(C)NC(C)=C(C(=O)OCCN(C)Cc2ccccc2)C1c1cccc([N+](=O)[O-])c1 (centres unmarked) [Nicardipine]	8.3		0.53			
COc1ccc2[nH]c([S+]([O-])Cc3ncc(C)c(OC)c3C)nc2c1 (centres unmarked) [Omeprazole]	0.35	96%	4.1	70^38 M^−1		
Cc1nccn1CC1CCc2c(c3ccccc3n2C)C1=O (centres unmarked) [Ondansetron]	1.7	75%	0.9	180^39 M^−1		
O=C(O)CCc1nc(-c2ccccc2)c(-c2ccccc2)o1 [Oxaprozin]	0.15	99%	780			
COc1ccnc(C[S+]([O-])c2nc3ccc(OC(F)F)cc3[nH]2)c1OC (centres unmarked) [Pantoprazole]	0.15	98%	6.5	420^41 M^−1		
C[C@]12C=CC(=O)C=C1CC[C@@H]1[C@@H]2[C@@H](O)C[C@@]2(C)[C@H]1CC[C@]2(O)C(=O)CO [Prednisolone]	1.5	90%	1.3	2,400^42 M^−1		
CC(C)c1cccc(C(C)C)c1O [Propofol]		99%				
CN[C@H]1CC[C@@H](c2ccc(Cl)c(Cl)c2)c2ccccc21 [Sertaline]		98%				
CCCc1nn(C)c2c(=O)[nH]c(-c3cc(S(=O)(=O)N4CCN(C)CC4)ccc3OCC)nc12 [Sildenafil]	1.5	96%	0.93			
CN1CC(=O)N2[C@H](c3ccc4c(c3)OCO4)c3[nH]c4ccccc4c3C[C@@H]2C1=O [Tadalafil]	0.9	94%	1.3	360^46 M^−1		
CCCc1nc2c(C)cc(-c3nc4ccccc4n3C)cc2n1Cc1ccc(-c2ccccc2C(=O)O)cc1 [Telmisartan]	7	99%	2.8	40,000^47 M^−1		40,000 M^−1
